Assay results from patent US8513202B2, “Crystalline form of 1-(β-D-glucopyranosyl)-4-methyl-3-[5-(4-fluorophenyl)-2-thienylmethyl]benzene hemihydrate” (Mitsubishi Tanabe Pharma Corporation, priority 2006, dated 2013).

Assay: stability of the crystalline form compared with the amorphous form
Format: physicochemical
Conditions: compared with the amorphous form of the compound of formula (I); test conditions not given

Compound: Cc1ccc([C@@H]2O[C@H](CO)[C@@H](O)[C@H](O)[C@H]2O)cc1Cc1ccc(-c2ccc(F)cc2)s1 [1-(β-D-glucopyranosyl)-4-methyl-3-[5-(4-fluorophenyl)-2-thienylmethyl]benzene hemihydrate]
- stability: more stable than the amorphous form
